Laboratory results from PubChem BioAssay AID1919007 (Molecular Pharmacology Branch, DTP, NCI, 2023).
pIC50: −log10 of the molar value.

System: A498 complex spheroids with HUVEC/MSC, growth
Assay: Anticancer human tumor A498 cell line growth inhibition [AhR];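 note: seven day exposure starting three days after spheroid seeding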;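 for viability, T/C: luminescence signal used as a surrogate for viable cells; luminescence viability scaled so 100% equals DMSO vehicle wells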
Settings: for viability, T/C: stronger effect = lower value
Procedure, shortened: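 Spheroids combined tumor cells with HUVEC endothelial cells and human MSCs as stroma. AhR antagonists were paired with standard or investigational drugs, each dosed in half-log steps down from near clinical Cmax, or from 10 microM where Cmax was unknown.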

[1] = curve of first compound, second compound 0.1 µM
[2] = curve of first compound, second compound 0.316 µM
[3] = curve of first compound, second compound 1 µM
[4] = curve of first compound, second compound 3.16 µM
[5] = curve of first compound, second compound 10 µM
[6] = second compound 0.1 µM, first compound 0.0316 µM
[7] = second compound 0.1 µM, first compound 0.1 µM
[8] = second compound 0.316 µM, first compound 0.0316 µM
[9] = second compound 0.316 µM, first compound 0.1 µM
[10] = second compound 1 µM, first compound 0.0316 µM
[11] = second compound 1 µM, first compound 0.1 µM
[12] = second compound 3.16 µM, first compound 0.0316 µM
[13] = second compound 3.16 µM, first compound 0.1 µM
[14] = second compound 10 µM, first compound 0.0316 µM
[15] = second compound 10 µM, first compound 0.1 µM
[16] = second compound 0.1 µM, first compound 0.316 µM
[17] = second compound 0.1 µM, first compound 1 µM
[18] = second compound 0.1 µM, first compound 3.16 µM
[19] = second compound 0.1 µM, first compound 10 µM
[20] = second compound 0.316 µM, first compound 0.316 µM
[21] = second compound 0.316 µM, first compound 1 µM
[22] = second compound 0.316 µM, first compound 3.16 µM
[23] = second compound 0.316 µM, first compound 10 µM
[24] = second compound 1 µM, first compound 0.316 µM
[25] = second compound 1 µM, first compound 1 µM
[26] = second compound 1 µM, first compound 3.16 µM
[27] = second compound 1 µM, first compound 10 µM
[28] = second compound 3.16 µM, first compound 0.316 µM
[29] = second compound 3.16 µM, first compound 1 µM
[30] = second compound 3.16 µM, first compound 3.16 µM
[31] = second compound 3.16 µM, first compound 10 µM
[32] = second compound 10 µM, first compound 0.316 µM
[33] = second compound 10 µM, first compound 1 µM
[34] = second compound 10 µM, first compound 3.16 µM
[35] = second compound 10 µM, first compound 10 µM

Cc1ccccc1N=Nc1ccc(NC(=O)c2ccnn2C)c(C)c1
viability, T/C (compound 0.1 µM): 88.8% [middle of 20 runs]
viability, T/C (compound 0.316 µM): 96.8% [middle of 20 runs]
viability, T/C (compound 1 µM): 89.2% [middle of 20 runs]
viability, T/C (compound 3.16 µM): 84.9% [middle of 20 runs]
viability, T/C (compound 10 µM): 86.3% [middle of 20 runs]
pIC50 (compound alone, run of 08/22/2022): < 5.00

Cn1ncnc1C1c2n[nH]c(=O)c3cc(F)cc(c23)NC1c1ccc(F)cc1 (stereo unspecified) + CC(CO)NC(=O)c1cc(-c2ccc(Cl)cc2)nn(-c2cnn(C)c2)c1=O
pIC50 [1]: < 7.00
pIC50 [2]: < 7.00
pIC50 [3]: < 7.00
pIC50 [4]: < 7.00
pIC50 [5]: < 7.00
viability, T/C (second compound 0.1 µM, first compound 0.000316 µM): 100%
viability, T/C (second compound 0.1 µM, first compound 0.001 µM): 102%
viability, T/C (second compound 0.1 µM, first compound 0.00316 µM): 106%
viability, T/C (second compound 0.1 µM, first compound 0.01 µM): 95.1%
viability, T/C [6]: 91.4%
viability, T/C [7]: 92.4%
viability, T/C (second compound 0.316 µM, first compound 0.000316 µM): 99.5%
viability, T/C (second compound 0.316 µM, first compound 0.001 µM): 103%
viability, T/C (second compound 0.316 µM, first compound 0.00316 µM): 101%
viability, T/C (second compound 0.316 µM, first compound 0.01 µM): 88.5%
viability, T/C [8]: 87.6%
viability, T/C [9]: 87.8%
viability, T/C (second compound 1 µM, first compound 0.000316 µM): 100%
viability, T/C (second compound 1 µM, first compound 0.001 µM): 95.7%
viability, T/C (second compound 1 µM, first compound 0.00316 µM): 103%
viability, T/C (second compound 1 µM, first compound 0.01 µM): 94.1%
viability, T/C [10]: 93.5%
viability, T/C [11]: 91.2%
viability, T/C (second compound 3.16 µM, first compound 0.000316 µM): 91%
viability, T/C (second compound 3.16 µM, first compound 0.001 µM): 94.1%
viability, T/C (second compound 3.16 µM, first compound 0.00316 µM): 92.1%
viability, T/C (second compound 3.16 µM, first compound 0.01 µM): 80.2%
viability, T/C [12]: 77.8%
viability, T/C [13]: 79.1%
viability, T/C (second compound 10 µM, first compound 0.000316 µM): 74.3%
viability, T/C (second compound 10 µM, first compound 0.001 µM): 71.7%
viability, T/C (second compound 10 µM, first compound 0.00316 µM): 75.9%
viability, T/C (second compound 10 µM, first compound 0.01 µM): 69%
viability, T/C [14]: 68.5%
viability, T/C [15]: 67.1%

CC1(C)CCC(CN2CCN(c3ccc(C(=O)NS(=O)(=O)c4ccc(NCC5CCOCC5)c([N+](=O)[O-])c4)c(Oc4cnc5[nH]ccc5c4)c3)CC2)=C(c2ccc(Cl)cc2)C1 + Cc1ccccc1N=Nc1ccc(NC(=O)c2ccnn2C)c(C)c1
pIC50 [1]: 5.07
pIC50 [2]: < 5.00
pIC50 [3]: 5.06
pIC50 [4]: < 5.00
pIC50 [5]: 5.06
viability, T/C [6]: 88.7%
viability, T/C [7]: 89.5%
viability, T/C [16]: 87.9%
viability, T/C [17]: 86.6%
viability, T/C [18]: 76.8%
viability, T/C [19]: 45.8%
viability, T/C [8]: 99.9%
viability, T/C [9]: 98.2%
viability, T/C [20]: 95.6%
viability, T/C [21]: 87.5%
viability, T/C [22]: 75.9%
viability, T/C [23]: 52.3%
viability, T/C [10]: 84.7%
viability, T/C [11]: 87.4%
viability, T/C [24]: 83.6%
viability, T/C [25]: 72%
viability, T/C [26]: 66.5%
viability, T/C [27]: 47.8%
viability, T/C [12]: 83%
viability, T/C [13]: 86.7%
viability, T/C [28]: 91.3%
viability, T/C [29]: 76.9%
viability, T/C [30]: 66.7%
viability, T/C [31]: 50.5%
viability, T/C [14]: 88.3%
viability, T/C [15]: 86.7%
viability, T/C [32]: 84.6%
viability, T/C [33]: 77.6%
viability, T/C [34]: 78.5%
viability, T/C [35]: 46%

O=C(C=Cc1cccc(S(=O)(=O)Nc2ccccc2)c1)NO + Cc1cncc(-c2nc(NCCc3c[nH]c4ccccc34)c3ncn(C(C)C)c3n2)c1
pIC50 [1]: 5.90
pIC50 [2]: 5.86
pIC50 [3]: 5.95
pIC50 [4]: 6.92
pIC50 [5]: > 7.50
viability, T/C [6]: 92.1%
viability, T/C [7]: 90.3%
viability, T/C [16]: 63.2%
viability, T/C [17]: 54.4%
viability, T/C [18]: 37.4%
viability, T/C [19]: 15.1%
viability, T/C [8]: 94.5%
viability, T/C [9]: 88.1%
viability, T/C [20]: 73.5%
viability, T/C [21]: 53.8%
viability, T/C [22]: 36.7%
viability, T/C [23]: 13.8%
viability, T/C [10]: 83.9%
viability, T/C [11]: 85%
viability, T/C [24]: 64.7%
viability, T/C [25]: 52.4%
viability, T/C [26]: 33.5%
viability, T/C [27]: 14.9%
viability, T/C [12]: 48.5%
viability, T/C [13]: 51.9%
viability, T/C [28]: 50%
viability, T/C [29]: 42.5%
viability, T/C [30]: 31.2%
viability, T/C [31]: 11.8%
viability, T/C [14]: 4.64%
viability, T/C [15]: 4.39%
viability, T/C [32]: 4.66%
viability, T/C [33]: 3.81%
viability, T/C [34]: 2.39%
viability, T/C [35]: 2.67%

CCN(c1cc(-c2ccc(CN3CCOCC3)cc2)cc(C(=O)NCc2c(C)cc(C)[nH]c2=O)c1C)C1CCOCC1 + Cc1ccccc1N=Nc1ccc(NC(=O)c2ccnn2C)c(C)c1
pIC50 [1]: < 5.52
pIC50 [2]: < 5.52
pIC50 [3]: < 5.52
pIC50 [4]: < 5.52
pIC50 [5]: < 5.52
viability, T/C (second compound 0.1 µM, first compound 0.00949 µM): 92.6%
viability, T/C (second compound 0.1 µM, first compound 0.03 µM): 96.8%
viability, T/C (second compound 0.1 µM, first compound 0.0949 µM): 94.3%
viability, T/C (second compound 0.1 µM, first compound 0.3 µM): 89.7%
viability, T/C (second compound 0.1 µM, first compound 0.949 µM): 93.1%
viability, T/C (second compound 0.1 µM, first compound 3 µM): 98.4%
viability, T/C (second compound 0.316 µM, first compound 0.00949 µM): 95.4%
viability, T/C (second compound 0.316 µM, first compound 0.03 µM): 98.9%
viability, T/C (second compound 0.316 µM, first compound 0.0949 µM): 98.2%
viability, T/C (second compound 0.316 µM, first compound 0.3 µM): 96.8%
viability, T/C (second compound 0.316 µM, first compound 0.949 µM): 96.4%
viability, T/C (second compound 0.316 µM, first compound 3 µM): 104%
viability, T/C (second compound 1 µM, first compound 0.00949 µM): 91.3%
viability, T/C (second compound 1 µM, first compound 0.03 µM): 92.9%
viability, T/C (second compound 1 µM, first compound 0.0949 µM): 90.8%
viability, T/C (second compound 1 µM, first compound 0.3 µM): 91.2%
viability, T/C (second compound 1 µM, first compound 0.949 µM): 85.2%
viability, T/C (second compound 1 µM, first compound 3 µM): 91.6%
viability, T/C (second compound 3.16 µM, first compound 0.00949 µM): 86.7%
viability, T/C (second compound 3.16 µM, first compound 0.03 µM): 92.6%
viability, T/C (second compound 3.16 µM, first compound 0.0949 µM): 91%
viability, T/C (second compound 3.16 µM, first compound 0.3 µM): 89.2%
viability, T/C (second compound 3.16 µM, first compound 0.949 µM): 87.7%
viability, T/C (second compound 3.16 µM, first compound 3 µM): 86.3%
viability, T/C (second compound 10 µM, first compound 0.00949 µM): 95.6%
viability, T/C (second compound 10 µM, first compound 0.03 µM): 91%
viability, T/C (second compound 10 µM, first compound 0.0949 µM): 95%
viability, T/C (second compound 10 µM, first compound 0.3 µM): 89.5%
viability, T/C (second compound 10 µM, first compound 0.949 µM): 92.5%
viability, T/C (second compound 10 µM, first compound 3 µM): 96.3%
